# Results reported in patent US20220048915A1 (SHANGHAI PHARMACEUTICALS HOLDING CO., LTD., priority 2018, published 2022).
# Assays:
# p38α = p38α (Homo sapiens, UniProt Q16539); assay: In vitro inhibition of p38 kinase (LANCE Ultra TR-FRET); format: biochemical; details: read-out: Kinase in vitro IC50(nM) p38α
# p38β = p38β (Homo sapiens, UniProt Q15759); assay: as above; format: biochemical; details: read-out: Kinase in vitro IC50(nM) p38β
# p38γ = target: T1, p38γ (Homo sapiens, UniProt P53778); assay: as above; format: biochemical; details: read-out: Kinase in vitro IC50(nM) p38γ
# T1 sequence (P53778 1-367): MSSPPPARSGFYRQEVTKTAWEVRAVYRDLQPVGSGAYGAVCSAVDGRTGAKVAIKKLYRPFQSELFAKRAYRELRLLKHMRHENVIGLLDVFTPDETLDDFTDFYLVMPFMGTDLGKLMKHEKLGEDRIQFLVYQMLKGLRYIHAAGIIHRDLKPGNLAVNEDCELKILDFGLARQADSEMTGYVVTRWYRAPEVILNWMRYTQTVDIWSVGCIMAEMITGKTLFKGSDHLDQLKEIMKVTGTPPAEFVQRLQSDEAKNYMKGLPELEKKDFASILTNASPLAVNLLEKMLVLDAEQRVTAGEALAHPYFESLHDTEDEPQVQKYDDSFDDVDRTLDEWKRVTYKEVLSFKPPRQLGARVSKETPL
# Procedure: 10 mM of the storage solution of the test compound was taken and placed in a 96-well compound plate, and using DMSO for the compound at an initial concentration of 100×, which was then used as the first concentration and then carried out a 3-fold gradient dilution with DMSO for a total of 10 concentrations. After that, 1 μL of gradient dilutions were added to 19 μL of 1× reaction buffer to prepare 5× compound for later use. […] To the compound-free control well was added 2 μL of the following liquid: 19 μL of 1× reaction buffer with addition of 1 μL of DMSO. To the Min control well was added 2 μL of 250 mM EDTA.
# 1× of LANCE® Detection value Buffer was used to prepare a 2×Antibody for use, and the amount was 5 μL per well, at the same time 10 mM EDTA was prepared for later use. After the enzyme reaction was carried out for 30 minutes, 5 μL 10 mM EDTA was added to the 384-well plate and the reaction was carried out at room temperature for 5 minutes. Afterwards, 5 μL LANCE® Ultra Europium-anti-phospho-eIF4E-binding protein 1 (Thr37/46) was added to the 384-well plate and the reaction was carried out at room temperature for one hour.
# BV-2 cells = assay: Inhibition of inflammation in LPS-stimulated BV-2 cells (ELISA of inflammatory factors); format: cell-based; details: Mus musculus, 100 ng/mL LPS 4 hours; for Emax: read-out: BV-2 Max Inh. (%); for IC50: read-out: BV-2 Rf IC50
# Procedure: Normal cultured 8th passage BV-2 cells were taken, and inoculated separately in 96-well plates at a certain cell density. The cell culture plates were cultured at 37° C. and 5% CO2 for 24 hours.
# After inoculating the plate for 24 hours, the cell culture medium was removed, and then 100 μL of a 4-fold gradient dilution compound starting from 10,000 nM prepared in DMEM+10% FBS, where High control and Low control contained 0.1% DMSO without compound. With 100 μL per well, the cell culture plate was cultured at 37° C. with 5% CO2 for one hour.
# The compound-containing cultures were removed. 100 ng/mL of LPS was prepared with DMEM+10% FBS culture medium, and then the compound was diluted in a 4-fold gradient from 10,000 nM with LPS-containing culture medium. In low control, the compound was replaced with 0.1% DMSO. In High control, 0.1% DMSO was prepared with culture medium without LPS. 100 μL per well, and the cell culture plates were cultured at 37° C. with 5% CO2 for 4 hours.
# After 4 hours of LPS stimulation, 110 μL of the culture solution was aspirated, and centrifuged at 2000 rpm for 2 minutes. A further 90 μl of supernatant was aspirated and immediately put into −20° C. for freezing.
# ELISA kits were used to detect the expression of inflammatory factors such as IL-10, TNFα, etc. The OD450 signal values were measured by microplate reader. The in vitro inhibitory activity of the compounds was calculated according to the following formula: Inhibition rate: Inhibition rate (%)=(signal value of control−signal value of administration)/(high signal value of control−low signal value of control)×100%. And according to the inhibition rate of each concentration, Graphpad Prism 5.0 was used to curve fit the […] signal values at each concentration and calculate the corresponding IC50, which is shown in Table 1.
# [1] = Pharmacokinetic properties in mice; format: in vivo, ICR mice; details: for absorption compared with the positive compound VX-745 at the same dose: 10 mg/kg; for Thalf (iv): iv 3 mg/kg; for Cmax / MRT / Tmax: male, ICR, mouse, plasma; for Cmax / MRT / Tmax / AUClast (po): po 10 mg/kg; for BA: po 10 mg/kg vs iv 3 mg/kg; for AUClast (po): 5-1440 minutes
# Procedure: Forty-eight male ICR mice, weighing 18-22 g (provided by Shanghai Xipuerbikai Laboratory Animal Co., Ltd, Certificate No.: 20130016008116). The mice were […] for 12-16 hours before the experiment but water was allowed.
# Blood samples were collected from the fundus vein of mice before and at 2, 5, 15, 30, 60, 90, 120, 240, 480, 600, and 1440 minutes of the administration, respectively.
# Blood samples were collected from the fundus vein of mice before and at 5, 15, 30, 60, 90, 120, 240, 480 and 1440 minutes of administration, respectively.
# 2-3 time points were taken for each mouse. The mice were sacrificed at 5, 15, 30, 60 and 1440 minutes after the administration (3 mice per time point), and the brains were taken, rinsed with saline, dried on filter paper and weighed.
# Blood samples were centrifuged at 8000 rpm for 5 minutes, and supernatant plasma was taken. To 50 μL of plasma samples was added 300 μL of acetonitrile containing internal standard (propranolol, 25 ng/mL) to precipitate the protein. After vortexing for 10 minutes and centrifuging at 6000 g and 4° C. for 10 minutes, the supernatant was taken and placed in a 96-well plate for determination of drug concentration in plasma by UPLC/MS-MS.
# Sequence of p38α (Q16539 whole entry): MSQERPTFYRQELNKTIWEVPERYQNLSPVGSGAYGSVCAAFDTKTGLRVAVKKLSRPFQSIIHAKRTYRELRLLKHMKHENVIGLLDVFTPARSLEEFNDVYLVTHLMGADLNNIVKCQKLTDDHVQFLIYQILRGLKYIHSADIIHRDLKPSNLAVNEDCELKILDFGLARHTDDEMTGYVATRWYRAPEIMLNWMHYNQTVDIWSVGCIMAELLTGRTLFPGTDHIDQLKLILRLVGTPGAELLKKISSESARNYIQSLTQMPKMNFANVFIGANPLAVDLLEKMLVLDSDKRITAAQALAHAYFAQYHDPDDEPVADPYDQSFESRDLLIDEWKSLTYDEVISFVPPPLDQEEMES
# Sequence of p38β (Q15759 whole entry): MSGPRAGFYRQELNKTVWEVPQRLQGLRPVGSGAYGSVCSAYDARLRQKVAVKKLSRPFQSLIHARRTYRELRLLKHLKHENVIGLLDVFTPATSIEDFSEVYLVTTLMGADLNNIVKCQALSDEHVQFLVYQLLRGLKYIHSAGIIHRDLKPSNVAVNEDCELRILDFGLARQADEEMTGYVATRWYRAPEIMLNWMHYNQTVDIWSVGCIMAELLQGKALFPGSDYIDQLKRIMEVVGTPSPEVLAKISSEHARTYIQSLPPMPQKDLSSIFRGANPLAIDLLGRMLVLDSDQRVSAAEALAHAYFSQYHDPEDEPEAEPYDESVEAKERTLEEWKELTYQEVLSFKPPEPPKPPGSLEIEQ
Structure (SMILES),IC50 (p38α) [nM],IC50 (p38β) [nM],IC50 (p38γ) [nM],Emax (BV-2 cells) [%],IC50 (BV-2 cells) [nM],absorption compared with the positive compound VX-745 at the same dose [1],Thalf (iv) [1] [h],Cmax [1] [ng/mL],MRT [1] [h],Tmax [1] [h],BA [1] [%],AUClast (po) [1]
"O=c1ncn2nc(Oc3cc(F)ccc3F)ccc2c1-c1c(Cl)cccc1Cl [Compound I-21, 5-(2,6-dichlorophenyl)-2-(2,5-difluorophenoxy)-6H-pyrimido[1,6-b]pyridazin-6-one]",27.7,226,> 3330,51.3,19.2,–,–,–,–,–,–,–
"O=c1ncn2nc(Oc3c(F)ccc(F)c3Cl)ccc2c1-c1c(Cl)cccc1Cl [Compound I-29, 2-(2-chloro-3,6-difluorophenoxy)-5-(2,6-dichlorophenyl)-6H-pyrimido[1,6-b]pyridazin-6-one]",34.1,406,> 3330,-50,678,–,–,–,–,–,–,–
"O=c1ncn2nc(Oc3cccc(F)c3F)ccc2c1-c1c(Cl)cccc1Cl [Compound I-23, 5-(2,6-dichlorophenyl)-2-(2,3-difluorophenoxy)-6H-pyrimido[1,6-b]pyridazin-6-one]",46.9,243,> 3330,-50,17.2,–,–,–,–,–,–,–
"O=c1ncn2nc(Oc3ccccc3F)ccc2c1-c1c(Cl)cccc1Cl [Compound I-27, 5-(2,6-dichlorophenyl)-2-(2-fluorophenoxy)-6H-pyrimido[1,6-b]pyridazin-6-one]",11.7,109,> 3330,41.9,18.8,–,–,–,–,–,–,–
"O=c1ncn2nc(Oc3ccc(F)cc3F)ccc2c1-c1cc(Cl)ccc1Cl [Compound I-46, 5-(2,5-dichlorophenyl)-2-(2,4-difluorophenoxy)-6H-pyrimido[1,6-b]pyridazin-6-one]",19.7,403,> 3330,–,–,better,3.96,891,4.86,2,119.3,4016 (h)*(ng/mL)
"O=c1ncn2nc(Oc3ccccc3Br)ccc2c1-c1c(Cl)cccc1Cl [Compound I-17, 2-(2-bromophenoxy)-5-(2,6-dichlorophenyl)-6H-pyrimido[1,6-b]pyridazin-6-one]",34.8,316,> 3330,-60,95.8,–,–,–,–,–,–,–
O=c1ncn2nc(Oc3ccc(F)c(F)c3F)ccc2c1-c1c(Cl)cccc1Cl [Compound I-40],23,111,> 3330,47.7,41.5,–,–,–,–,–,–,–
"O=c1ncn2nc(Oc3ccc(F)c(Br)c3)ccc2c1-c1c(Cl)cccc1Cl [Compound I-5, 2-(3-bromo-4-fluorophenoxy)-5-(2,6-dichlorophenyl)-6H-pyrimido[1,6-b]pyridazin-6-one]",49.3,389,> 3330,44,94.3,–,–,–,–,–,–,–
"O=c1ncn2nc(Oc3cc(Br)ccc3Cl)ccc2c1-c1c(Cl)cccc1Cl [Compound I-16, 2-(5-bromo-2-chlorophenoxy)-5-(2,6-dichlorophenyl)-6H-pyrimido[1,6-b]pyridazin-6-one]",25.9,109,> 3330,44.2,6.19,–,–,–,–,–,–,–
"O=c1ncn2nc(Oc3ccc(Br)cc3)ccc2c1-c1c(Cl)cccc1Cl [Compound I-39, 2-(4-bromophenoxy)-5-(2,6-dichlorophenyl)-6H-pyrimido[1,6-b]pyridazin-6-one]",35.6,602,> 3330,56.6,296,–,–,–,–,–,–,–
"O=c1ncn2nc(Oc3cccc(Br)c3)ccc2c1-c1c(Cl)cccc1Cl [Compound I-10, 2-(3-bromophenoxy)-5-(2,6-dichlorophenyl)-6H-pyrimido[1,6-b]pyridazin-6-one]",60.6,434,> 3330,-60,75.6,–,–,–,–,–,–,–
"CC(C)N1CCN(c2cc3c(-c4c(Cl)cccc4Cl)c(=O)ncn3nc2Oc2ccc(F)cc2F)CC1 [Compound I-60, 5-(2,6-dichlorophenyl)-2-(2,4-difluorophenoxy)-3-(4-isopropylpiperazin-1-yl)-6H-pyrimido[1,6-b]pyridazin-6-one]",14.8,111,> 3330,34.5,12.4,–,–,–,–,–,–,–
"O=c1ncn2nc(Oc3ccc(Cl)cc3F)ccc2c1-c1c(Cl)cccc1Cl [Compound I-6, 2-(4-chloro-2-fluorophenoxy)-5-(2,6-dichlorophenyl)-6H-pyrimido[1,6-b]pyridazin-6-one]",13.6,109,> 3330,44.7,16.1,–,–,–,–,–,–,–
"O=c1ncn2nc(Oc3cc(Cl)ccc3Cl)ccc2c1-c1c(Cl)cccc1Cl [Compound I-22, 2-(2,5-dichlorophenoxy)-5-(2,6-dichlorophenyl)-6H-pyrimido[1,6-b]pyridazin-6-one]",31.3,150,> 3330,53.6,18.3,–,–,–,–,–,–,–
"O=c1ncn2nc(Oc3ccc(Cl)cc3Cl)ccc2c1-c1c(Cl)cccc1Cl [Compound I-20, 2-(2,4-dichlorophenoxy)-5-(2,6-dichlorophenyl)-6H-pyrimido[1,6-b]pyridazin-6-one]",17.6,96,> 3330,-60,23.3,–,–,–,–,–,–,–
"Cc1ccccc1-c1c(=O)ncn2nc(Oc3ccc(F)cc3F)ccc12 [Compound I-50, 2-(2,4-difluorophenoxy)-5-(o-methylphenyl)-6H-pyrimido[1,6-b]pyridazin-6-one]",34.2,1090,> 3330,–,–,better,1.93,928,3.05,0.83,84.9,3107 (h)*(ng/mL)
"O=c1ncn2nc(Oc3ccc(F)cc3F)ccc2c1-c1cccc(Cl)c1Cl [Compound I-52, 5-(2,3-dichlorophenyl)-2-(2,4-difluorophenoxy)-6H-pyrimido[1,6-b]pyridazin-6-one]",54.2,947,> 3330,–,–,–,–,–,–,–,–,–
